Active and inactive are the calls of the source.
Columns and labels:
[1] = target: Methylcytosine dioxygenase TET1 (Homo sapiens) (UniProt Q8NFU7); assay: Inhibition of recombinant human TET1 catalytic domain assessed as reduction of 5hmC formation at 125 uM using hemi-methylated synthetic oligomer 5'-AATTAGAA[5meC]GCTCCTT-3' as substrate incubated for 30 mins in presence of CuSO4 by LC-MS method
[2] = target: Methylcytosine dioxygenase TET1 (Homo sapiens) (UniProt Q8NFU7); assay: Inhibition of recombinant human TET1 assessed as reduction of 5hmC formation at 0.01 to 125 uM incubated for 30 mins in presence of 4 uM CuSO4 by HPLC-ESI-MS/MS method; details: dose 0.01-125 µM
[3] = target: Methylcytosine dioxygenase TET1 (Homo sapiens) (UniProt Q8NFU7); assay: Inhibition of recombinant human TET1 assessed as reduction of 5hmC formation at 0.01 to 125 uM incubated for 30 mins in presence of 1 uM CuSO4 by HPLC-ESI-MS/MS method; details: dose 0.01-125 µM
[4] = target: Methylcytosine dioxygenase TET1 (Homo sapiens) (UniProt Q8NFU7); assay: Inhibition of recombinant human TET1 catalytic domain assessed as reduction of 5hmC formation at 25 uM incubated for 30 mins by HPLC-ESI-MS/MS method
[5] = target: Methylcytosine dioxygenase TET1 (Homo sapiens) (UniProt Q8NFU7); assay: Inhibition of recombinant human TET1 catalytic domain assessed as reduction of 5hmC formation at 125 uM using hemi-methylated synthetic oligomer 5'-AATTAGAA[5meC]GCTCCTT-3' as substrate incubated for 30 mins by LC-MS method
[6] = target: Methylcytosine dioxygenase TET2 (Homo sapiens) (UniProt Q6N021); assay: Inhibition of recombinant human TET2 catalytic domain assessed as reduction of 5hmC formation at 125 uM using hemi-methylated synthetic oligomer 5'-AATTAGAA[5meC]GCTCCTT-3' as substrate incubated for 30 mins by LC-MS method

Measured: inhibition

Methylcytosine dioxygenase TET1 (Homo sapiens), sequence (Q8NFU7 whole entry, the tested form may be a part): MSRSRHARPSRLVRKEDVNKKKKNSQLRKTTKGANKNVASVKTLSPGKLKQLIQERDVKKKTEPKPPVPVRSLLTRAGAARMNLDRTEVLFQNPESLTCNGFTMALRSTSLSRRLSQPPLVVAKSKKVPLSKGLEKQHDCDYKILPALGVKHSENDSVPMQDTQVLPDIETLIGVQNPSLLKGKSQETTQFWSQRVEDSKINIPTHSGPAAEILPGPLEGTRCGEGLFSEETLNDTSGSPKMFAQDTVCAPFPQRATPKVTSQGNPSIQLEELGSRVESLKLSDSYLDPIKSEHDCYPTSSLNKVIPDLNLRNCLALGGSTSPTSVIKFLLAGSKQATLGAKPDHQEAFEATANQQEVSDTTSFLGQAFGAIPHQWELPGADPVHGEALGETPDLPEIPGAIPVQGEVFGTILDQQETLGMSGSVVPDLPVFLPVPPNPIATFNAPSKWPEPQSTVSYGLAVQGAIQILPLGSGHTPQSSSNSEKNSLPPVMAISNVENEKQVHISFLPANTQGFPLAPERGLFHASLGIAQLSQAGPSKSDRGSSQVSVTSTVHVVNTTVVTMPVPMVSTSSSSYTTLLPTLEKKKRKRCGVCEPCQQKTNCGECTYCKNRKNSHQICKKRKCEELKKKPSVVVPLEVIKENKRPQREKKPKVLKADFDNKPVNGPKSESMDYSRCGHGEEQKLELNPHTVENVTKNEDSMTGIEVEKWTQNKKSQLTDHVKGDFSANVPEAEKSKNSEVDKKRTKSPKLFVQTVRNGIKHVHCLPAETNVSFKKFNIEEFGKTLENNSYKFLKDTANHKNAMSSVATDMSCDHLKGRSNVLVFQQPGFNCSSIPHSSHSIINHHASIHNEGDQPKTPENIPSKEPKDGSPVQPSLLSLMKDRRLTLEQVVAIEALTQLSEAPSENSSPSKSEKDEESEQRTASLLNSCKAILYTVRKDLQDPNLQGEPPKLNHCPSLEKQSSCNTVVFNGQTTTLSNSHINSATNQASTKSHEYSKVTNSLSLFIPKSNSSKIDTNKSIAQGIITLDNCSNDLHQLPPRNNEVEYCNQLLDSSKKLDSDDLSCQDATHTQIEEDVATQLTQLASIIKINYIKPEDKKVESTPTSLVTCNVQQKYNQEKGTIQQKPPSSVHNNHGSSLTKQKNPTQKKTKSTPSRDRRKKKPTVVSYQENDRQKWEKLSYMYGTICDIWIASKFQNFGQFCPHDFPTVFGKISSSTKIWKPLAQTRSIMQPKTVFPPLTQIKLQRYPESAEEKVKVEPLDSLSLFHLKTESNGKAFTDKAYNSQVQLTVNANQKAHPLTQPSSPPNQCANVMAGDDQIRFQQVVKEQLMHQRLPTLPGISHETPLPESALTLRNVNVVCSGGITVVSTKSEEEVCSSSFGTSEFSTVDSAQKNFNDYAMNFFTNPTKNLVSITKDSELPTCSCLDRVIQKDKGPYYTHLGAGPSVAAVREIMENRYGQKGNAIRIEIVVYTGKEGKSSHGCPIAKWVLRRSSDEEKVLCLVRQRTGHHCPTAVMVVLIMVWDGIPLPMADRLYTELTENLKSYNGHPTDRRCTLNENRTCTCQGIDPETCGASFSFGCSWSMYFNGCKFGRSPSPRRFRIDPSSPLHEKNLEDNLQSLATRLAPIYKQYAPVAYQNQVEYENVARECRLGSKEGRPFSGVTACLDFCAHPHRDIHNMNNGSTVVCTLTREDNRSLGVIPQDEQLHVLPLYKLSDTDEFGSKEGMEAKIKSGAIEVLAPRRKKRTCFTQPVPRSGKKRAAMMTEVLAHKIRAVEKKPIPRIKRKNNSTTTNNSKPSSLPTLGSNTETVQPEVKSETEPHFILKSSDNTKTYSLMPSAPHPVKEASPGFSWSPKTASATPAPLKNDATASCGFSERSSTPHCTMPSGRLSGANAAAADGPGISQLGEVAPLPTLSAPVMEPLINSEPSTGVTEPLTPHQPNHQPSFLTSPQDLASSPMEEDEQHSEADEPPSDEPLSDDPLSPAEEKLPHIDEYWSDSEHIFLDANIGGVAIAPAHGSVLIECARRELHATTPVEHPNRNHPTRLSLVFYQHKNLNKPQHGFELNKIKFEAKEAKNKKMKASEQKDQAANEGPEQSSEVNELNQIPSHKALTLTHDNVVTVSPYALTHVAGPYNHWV

Nc1nc(=O)n(-c2cccc(-c3ccccc3)c2)cc1Cl
not listed: [6]
active: all other assays above

CUPRIC SULFATE
active: [6] | [4] | [5]
